Laboratory results published in ChEMBL document CHEMBL1127614, “2,6-Disubstituted aryl carboxylic acids, leaving groups "par excellence" for benzisothiazolone inhibitors of human leukocyte elastase” (J Med Chem, 1994).

These compounds were tested against T1, Neutrophil elastase (Homo sapiens, UniProt P08246) (assay: In vitro inhibition constant of human leukocyte elastase.).
T1 sequence (P08246 whole entry): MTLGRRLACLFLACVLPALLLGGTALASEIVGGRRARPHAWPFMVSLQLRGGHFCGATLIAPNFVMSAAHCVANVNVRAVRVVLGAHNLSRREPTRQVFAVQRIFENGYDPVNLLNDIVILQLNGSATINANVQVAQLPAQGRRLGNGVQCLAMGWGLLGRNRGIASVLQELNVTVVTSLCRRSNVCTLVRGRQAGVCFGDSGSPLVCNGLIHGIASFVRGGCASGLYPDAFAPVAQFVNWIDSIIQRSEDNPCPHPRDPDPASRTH

With `CC(C)(C)c1cccc2c1C(=O)N(COC(=O)c1c(Cl)cccc1Cl)S2(=O)=O` as the compound, how does the Ki read?
Its Ki is 26 nM.

`O=C(OCN1C(=O)c2c(-c3ccccc3)cccc2S1(=O)=O)c1c(Cl)cccc1Cl` was tested. Which Ki did it give?
The Ki was 1 nM.

Which Ki does the source give for `O=C(OCN1C(=O)c2ccccc2S1(=O)=O)c1c(F)cccc1F` here?
The Ki was 8 nM.

With `CC(=O)OCN1C(=O)c2ccccc2S1(=O)=O` as the compound, how does the Ki read?
Its Ki is 102 nM.

Which Ki does the source give for `CCC(C)c1cccc2c1C(=O)N(COC(=O)c1c(Cl)cccc1Cl)S2(=O)=O` (stereo not given) here?
The Ki was 0.06 nM.

With `CC(=O)Nc1cccc(Cl)c1C(=O)OCN1C(=O)c2ccccc2S1(=O)=O` as the compound, how does the Ki read?
Its Ki is 18 nM.

With `CC(C)c1cccc2c1C(=O)N(COC(=O)c1c(Cl)cccc1Cl)S2(=O)=O` as the compound, how does the Ki read?
Its Ki is 0.03 nM.

How did the Ki turn out when `CCc1cccc2c1C(=O)N(COC(=O)c1c(Cl)cccc1Cl)S2(=O)=O` was run?
Its Ki is 0.17 nM.

Which Ki does the source give for `Cc1cccc(C)c1C(=O)OCN1C(=O)c2ccccc2S1(=O)=O` here?
The Ki was 4 nM.

With `O=C(OCN1C(=O)c2ccccc2S1(=O)=O)c1ccccc1` as the compound, how does the Ki read?
Its Ki is 31 nM.

How did the Ki turn out when `O=C(OCN1C(=O)c2ccccc2S1(=O)=O)c1c(C(F)(F)F)cccc1C(F)(F)F` was run?
The Ki was 37 nM.

With `COc1cccc(OC)c1C(=O)OCN1C(=O)c2ccccc2S1(=O)=O` as the compound, how does the Ki read?
The Ki was 8 nM.

For `O=C(OCN1C(=O)c2ccccc2S1(=O)=O)c1c(Br)cccc1Br`, which Ki is on record?
The Ki was 8.5 nM.

For `Cc1cccc2c1C(=O)N(COC(=O)c1c(Cl)cccc1Cl)S2(=O)=O`, which Ki is on record?
Its Ki is 2 nM.

What follows are compounds tested on Cricetinae gen. sp. (assay: In Vivo evaluation of the Compound for the percentage inhibition of HLE at 60 mg/kg dose by intravenous administration).
Assay type: functional, Cricetulus griseus

For `CC(C)c1cccc2c1C(=O)N(COC(=O)c1c(Cl)cccc1Cl)S2(=O)=O`, which inhibition in vivo at 60 mg/kg is on record?
Its inhibition in vivo at 60 mg/kg is 47%.
